The source made the active and inactive calls. No rule for the calls is given here.
Test system: CCRIS mutagenicity, Ames/micronucleus/aberration tests
Assay: CCRIS mutagenicity studies
[1] = Test System: AMES SALMONELLA TYPHIMURIUM, Strain/Indicator: TA98, Metabolic Activation: NONE, Method: STANDARD PLATE
[2] = Test System: AMES SALMONELLA TYPHIMURIUM, Strain/Indicator: TA98, Metabolic Activation: RAT, LIVER, S-9, AROCLOR 1254, Method: STANDARD PLATE
[3] = Test System: AMES SALMONELLA TYPHIMURIUM, Strain/Indicator: TA100, Metabolic Activation: NONE, Method: STANDARD PLATE
[4] = Test System: AMES SALMONELLA TYPHIMURIUM, Strain/Indicator: TA100, Metabolic Activation: RAT, LIVER, S-9, AROCLOR 1254, Method: STANDARD PLATE
[5] = Test System: AMES SALMONELLA TYPHIMURIUM, Strain/Indicator: TA1535, Metabolic Activation: NONE, Method: STANDARD PLATE
[6] = Test System: AMES SALMONELLA TYPHIMURIUM, Strain/Indicator: TA1535, Metabolic Activation: RAT, LIVER, S-9, AROCLOR 1254, Method: STANDARD PLATE
[7] = Test System: AMES SALMONELLA TYPHIMURIUM, Strain/Indicator: TA1537, Metabolic Activation: NONE, Method: STANDARD PLATE
[8] = Test System: AMES SALMONELLA TYPHIMURIUM, Strain/Indicator: TA1537, Metabolic Activation: RAT, LIVER, S-9, AROCLOR 1254, Method: STANDARD PLATE
[9] = Test System: AMES SALMONELLA TYPHIMURIUM, Strain/Indicator: TA1538, Metabolic Activation: NONE, Method: STANDARD PLATE
[10] = Test System: AMES SALMONELLA TYPHIMURIUM, Strain/Indicator: TA1538, Metabolic Activation: RAT, LIVER, S-9, AROCLOR 1254, Method: STANDARD PLATE

O=C(O)CCCc1c[nH]c2ccccc12
mutagenic call (Test System: AMES SALMONELLA TYPHIMURIUM, Strain/Indicator: TA97A, Metabolic Activation: NONE, Method: STANDARD PLATE): inactive; negative
mutagenic call (Test System: AMES SALMONELLA TYPHIMURIUM, Strain/Indicator: TA97A, Metabolic Activation: RAT, LIVER, S-9, AROCLOR 1254, Method: STANDARD PLATE): inactive; negative
mutagenic call [1]: inactive; negative
mutagenic call [2]: inactive; negative
mutagenic call [3]: inactive; negative
mutagenic call [4]: inactive; negative
mutagenic call [5]: inactive; negative
mutagenic call [6]: inactive; negative
mutagenic call [7]: inactive; negative
mutagenic call [8]: inactive; negative
mutagenic call [9]: inactive; negative
mutagenic call [10]: inactive; negative

CNC(=O)ONC(C)=O
mutagenic call [1]: active; positive
mutagenic call (Test System: AMES SALMONELLA TYPHIMURIUM, Strain/Indicator: TA98, Metabolic Activation: RAT, LIVER, S-9, Method: STANDARD PLATE): active; positive
mutagenic call [3]: active; positive

c1ccc(COc2cccc3cccnc23)cc1
mutagenic call (Test System: AMES SALMONELLA TYPHIMURIUM, Strain/Indicator: TA100, Metabolic Activation: S-9, Method: PREINCUBATION): inactive; negative

COc1c(O)cc2c3c1-c1ccccc1C[C@H]3N(C)CC2
mutagenic call (Test System: AMES SALMONELLA TYPHIMURIUM, Strain/Indicator: TA98, Metabolic Activation: RAT, LIVER, S-9, PHENOBARBITAL AND BETA-NAPHTHOFLAVONE, Method: PREINCUBATION): active; positive
mutagenic call (Test System: AMES SALMONELLA TYPHIMURIUM, Strain/Indicator: TA100, Metabolic Activation: RAT, LIVER, S-9, PHENOBARBITAL AND BETA-NAPHTHOFLAVONE, Method: PREINCUBATION): active; positive

O=C(CCl)CCl
mutagenic call [1]: inactive; negative
mutagenic call (Test System: AMES SALMONELLA TYPHIMURIUM, Strain/Indicator: TA100, Metabolic Activation: NONE, Method: FLUCTUATION TEST): active; positive
mutagenic call [3]: active; positive
mutagenic call (Test System: AMES SALMONELLA TYPHIMURIUM, Strain/Indicator: TA100, Metabolic Activation: RAT, LIVER, S-9, AROCLOR 1254, Method: FLUCTUATION TEST): inactive; negative
mutagenic call [4]: active; positive
mutagenic call [5]: active; positive
mutagenic call [6]: active; positive

O=S1(=O)OC(c2cc(Br)c(O)c(Br)c2)(c2cc(Br)c(O)c(Br)c2)c2ccccc21
mutagenic call [1]: inactive; negative
mutagenic call [2]: inactive; negative
mutagenic call [3]: inactive; negative
mutagenic call [4]: inactive; negative
mutagenic call [5]: inactive; negative
mutagenic call [6]: inactive; negative
mutagenic call [7]: inactive; negative
mutagenic call [8]: inactive; negative
mutagenic call [9]: inactive; negative
mutagenic call [10]: inactive; negative
mutagenic call (Test System: MOUSE LYMPHOMA, Strain/Indicator: L5178Y (TK+/TK-), Metabolic Activation: NONE, Method: SUSPENSION/PLATE): inactive; negative
mutagenic call (Test System: MOUSE LYMPHOMA, Strain/Indicator: L5178Y (TK+/TK-), Metabolic Activation: RAT, LIVER, S-9, AROCLOR 1254, Method: SUSPENSION/PLATE): inactive; negative

Cc1ccc(S(=O)(=O)Oc2ccc(N=Nc3ccc(-c4ccc(N=Nc5c(S(=O)(=O)O)cc6cc(S(=O)(=O)O)ccc6c5O)cc4C)c(C)c3)cc2)cc1
mutagenic call (Test System: AMES SALMONELLA TYPHIMURIUM, Strain/Indicator: TA98, Metabolic Activation: HAMSTER, LIVER, S-9, Method: PREINCUBATION (PRIVAL METHOD)): inactive; negative

CN1C(=O)CC(=O)N(c2ccccc2)c2cc(Cl)ccc21
mutagenic call [1]: inactive; negative
mutagenic call (Test System: AMES SALMONELLA TYPHIMURIUM, Strain/Indicator: TA98, Metabolic Activation: RAT, LIVER, S-9, PHENOBARBITAL AND 5,6-BENZOFLAVONE, Method: STANDARD PLATE): inactive; negative
mutagenic call [3]: inactive; negative
mutagenic call (Test System: AMES SALMONELLA TYPHIMURIUM, Strain/Indicator: TA100, Metabolic Activation: RAT, LIVER, S-9, PHENOBARBITAL AND 5,6-BENZOFLAVONE, Method: STANDARD PLATE): inactive; negative
mutagenic call [5]: inactive; negative
mutagenic call (Test System: AMES SALMONELLA TYPHIMURIUM, Strain/Indicator: TA1535, Metabolic Activation: RAT, LIVER, S-9, PHENOBARBITAL AND 5,6-BENZOFLAVONE, Method: STANDARD PLATE): inactive; negative
mutagenic call [7]: inactive; negative
mutagenic call (Test System: AMES SALMONELLA TYPHIMURIUM, Strain/Indicator: TA1537, Metabolic Activation: RAT, LIVER, S-9, PHENOBARBITAL AND 5,6-BENZOFLAVONE, Method: STANDARD PLATE): inactive; negative
mutagenic call (Test System: E. COLI, Strain/Indicator: WP2 UVRA, Metabolic Activation: NONE, Method: STANDARD PLATE): inactive; negative

Reference: PubChem BioAssay AID1259407 (Chemical Carcinogenesis Research Information System (CCRIS), 2018)
